From US11180474B2 (BRISTOL-MYERS SQUIBB COMPANY, priority 2016, dated 2021)

Assays:
human TLR9 = target: T1, human TLR9 (Homo sapiens, UniProt Q9NR96); assay: TLR9 inhibition reporter assay (HEK-Blue cells, SEAP reporter, ODN2006 stimulation); type: cell-based; settings: HEK-Blue cells overexpressing human TLR9, ODN2006 5 nM
T1 construct: host or cells: HEK-Blue cells
T1 sequence (Q9NR96 26-1032): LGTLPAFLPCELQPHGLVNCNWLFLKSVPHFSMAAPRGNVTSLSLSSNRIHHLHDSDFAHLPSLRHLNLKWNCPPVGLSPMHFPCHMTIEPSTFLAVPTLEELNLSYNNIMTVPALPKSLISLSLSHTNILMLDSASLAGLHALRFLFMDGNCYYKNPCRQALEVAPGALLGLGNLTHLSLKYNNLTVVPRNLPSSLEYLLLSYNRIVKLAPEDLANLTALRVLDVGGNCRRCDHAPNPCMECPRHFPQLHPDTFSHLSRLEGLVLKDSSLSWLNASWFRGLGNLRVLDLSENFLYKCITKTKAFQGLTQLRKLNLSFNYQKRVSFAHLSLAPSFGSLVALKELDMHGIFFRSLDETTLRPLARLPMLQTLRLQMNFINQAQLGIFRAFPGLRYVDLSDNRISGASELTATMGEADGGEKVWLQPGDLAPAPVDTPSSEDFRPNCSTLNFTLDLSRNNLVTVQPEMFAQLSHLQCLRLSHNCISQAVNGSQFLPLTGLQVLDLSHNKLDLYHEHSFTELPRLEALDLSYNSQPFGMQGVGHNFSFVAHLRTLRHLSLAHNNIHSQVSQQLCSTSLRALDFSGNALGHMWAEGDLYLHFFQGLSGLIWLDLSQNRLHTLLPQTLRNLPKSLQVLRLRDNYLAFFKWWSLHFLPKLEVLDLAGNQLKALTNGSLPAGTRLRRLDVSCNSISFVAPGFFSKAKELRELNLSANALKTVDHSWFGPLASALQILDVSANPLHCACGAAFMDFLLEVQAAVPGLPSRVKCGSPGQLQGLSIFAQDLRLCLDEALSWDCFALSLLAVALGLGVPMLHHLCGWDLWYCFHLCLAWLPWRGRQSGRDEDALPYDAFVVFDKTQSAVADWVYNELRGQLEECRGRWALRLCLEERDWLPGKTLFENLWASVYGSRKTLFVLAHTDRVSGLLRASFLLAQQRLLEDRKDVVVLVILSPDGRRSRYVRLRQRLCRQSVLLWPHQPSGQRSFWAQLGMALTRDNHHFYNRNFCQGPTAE
Outline: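 Screening used HEK-Blue cells overexpressing one human TLR (7, 8 or 9) and an IFN-β minimal promoter–NF-κB/AP-1 SEAP construct. Stimulation lasted 22 h at 37 °C with receptor-specific agonist: gardiquimod, R848 or ODN2006 at 7.5 μM, 15.9 μM and 5 nM.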

human TLR7 = target: T2, human TLR7 (Homo sapiens, UniProt Q9NYK1); assay: TLR7 inhibition reporter assay (HEK-Blue cells, SEAP reporter, gardiquimod stimulation); type: cell-based; settings: HEK-Blue cells overexpressing human TLR7, gardiquimod 7.5 μM
T2 construct: host or cells: HEK-Blue cells
T2 sequence (Q9NYK1 27-1049): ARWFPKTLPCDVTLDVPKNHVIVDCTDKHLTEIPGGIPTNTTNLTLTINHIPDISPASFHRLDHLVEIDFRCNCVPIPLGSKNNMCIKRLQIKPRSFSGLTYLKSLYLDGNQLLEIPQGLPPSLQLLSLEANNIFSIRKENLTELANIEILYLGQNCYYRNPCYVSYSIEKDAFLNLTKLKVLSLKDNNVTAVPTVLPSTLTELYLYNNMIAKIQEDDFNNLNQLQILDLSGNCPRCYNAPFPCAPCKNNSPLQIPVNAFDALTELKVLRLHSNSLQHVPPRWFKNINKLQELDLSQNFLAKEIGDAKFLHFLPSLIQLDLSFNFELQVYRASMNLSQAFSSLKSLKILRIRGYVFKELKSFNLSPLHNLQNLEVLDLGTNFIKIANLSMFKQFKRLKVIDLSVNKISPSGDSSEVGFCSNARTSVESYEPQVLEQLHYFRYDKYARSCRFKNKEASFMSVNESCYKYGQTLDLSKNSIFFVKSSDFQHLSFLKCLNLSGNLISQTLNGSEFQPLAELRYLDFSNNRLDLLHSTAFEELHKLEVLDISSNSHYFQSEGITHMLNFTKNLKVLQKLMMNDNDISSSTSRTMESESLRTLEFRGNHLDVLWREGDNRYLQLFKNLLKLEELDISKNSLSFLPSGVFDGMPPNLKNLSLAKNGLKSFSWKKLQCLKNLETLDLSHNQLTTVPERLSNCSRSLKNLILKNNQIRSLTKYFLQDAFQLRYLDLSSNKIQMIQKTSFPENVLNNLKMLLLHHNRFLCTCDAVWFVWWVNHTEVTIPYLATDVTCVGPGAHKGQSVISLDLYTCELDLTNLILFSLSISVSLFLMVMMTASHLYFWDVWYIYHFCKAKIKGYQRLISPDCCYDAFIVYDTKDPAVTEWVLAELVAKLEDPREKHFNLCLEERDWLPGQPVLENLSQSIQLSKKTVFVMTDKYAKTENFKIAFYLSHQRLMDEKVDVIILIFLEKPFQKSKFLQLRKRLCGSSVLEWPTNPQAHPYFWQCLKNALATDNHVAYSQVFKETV
Outline: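 Dose-response testing from 0.05 nM to 50 μM final was done on reporter cells for 22 hours at 37° C. Secreted SEAP was then detected, and inhibition was calculated as percent reduction of the agonist-plus-DMSO signal compared with wells given a known inhibitor.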

| SMILES | IC50 (human TLR9) [nM] | IC50 (human TLR7) [nM] |
| --- | --- | --- |
| COc1ccc(-c2[nH]c3ccc(C4CCNCC4F)cc3c2C(C)C)cc1OC (racemic) [Example 319, 2-(3,4-dimethoxyphenyl)-5-(3-fluoropiperidin-4-yl)-3-isopropyl-1H-indole] | 9110 | 45 |
| COc1ccc(-c2[nH]c3ccc(C4CCNCC4F)cc3c2C(C)C)cc1OC (racemic) [Example 320, 2-(3,4-dimethoxyphenyl)-5-(3-fluoropiperidin-4-yl)-3-isopropyl-1H-indole] | 5020 | 71 |
| COc1ccc(-c2[nH]c3ccc(C4CCNCC4F)cc3c2C(C)C)cc1OC (single isomer, unassigned) [Example 321, 2-(3,4-dimethoxyphenyl)-5-(3-fluoropiperidin-4-yl)-3-isopropyl-1H-indole] | 4500 | 22 |
| COc1ccc(-c2[nH]c3ccc(C4CCNCC4F)cc3c2C(C)C)cc1OC (single isomer, unassigned) [Example 322, 2-(3,4-dimethoxyphenyl)-5-(3-fluoropiperidin-4-yl)-3-isopropyl-1H-indole] | 2790 | 21 |
| COc1ccc(-c2[nH]c3ccc(C4CCNCC4F)cc3c2C(C)C)cc1OC (single isomer, unassigned) [Example 323, 2-(3,4-dimethoxyphenyl)-5-(3-fluoropiperidin-4-yl)-3-isopropyl-1H-indole] | 2870 | 42 |
| COc1ccc(-c2[nH]c3ccc(C4CCNCC4F)cc3c2C(C)C)cc1OC (single isomer, unassigned) [Example 324, 2-(3,4-dimethoxyphenyl)-5-(3-fluoropiperidin-4-yl)-3-isopropyl-1H-indole] | 3530 | 51 |
| CCN1CCCC(N2CCC(c3ccc4[nH]c(-c5ccc(OC)c(OC)c5)c(C)c4c3)CC2)C1 (stereo not shown) [Example 24, 2-(3,4-dimethoxyphenyl)-5-(1′-ethyl-[1,3′-bipiperidin]-4-yl)-3-methyl-1H-indole] | 17500 | ≥ 50000 |
| COc1ccc(-c2[nH]c3ccc(C4CCNCC4(F)F)cc3c2C(C)C)cc1OC (stereo not shown) [Example 325, 5-(3,3-difluoropiperidin-4-yl)-2-(3,4-dimethoxyphenyl)-3-isopropyl-1H-indole] | ≥ 50000 | 269 |
| COc1ccc(-c2[nH]c3ccc(C4CCNC(=O)C4)cc3c2C(C)C)cc1OC (stereo not shown) [Example 326, 4-(2-(3,4-dimethoxyphenyl)-3-isopropyl-1H-indol-5-yl)piperidin-2-one] | ≥ 50000 | 127 |
| COc1ccc(-c2[nH]c3ccc(C4CCNCC4)cc3c2CC(F)(F)F)cc1OC [Example 329, 2-(3,4-dimethoxyphenyl)-5-(piperidin-4-yl)-3-(2,2,2-trifluoroethyl)-1H-indole] | 1160 | 15 |

Results, then the compound that gave them:

| IC50 (human TLR9) [nM] | IC50 (human TLR7) [nM] | SMILES |
| --- | --- | --- |
| 1610 | 57 | COc1ccc(-c2[nH]c3ccc(C4CCN(C(=O)CCN5CCCCC5)CC4)cc3c2CC(F)(F)F)cc1OC [Example 330, 1-(4-(2-(3,4-dimethoxyphenyl)-3-(2,2,2-trifluoroethyl)-1H-indol-5-yl)piperidin-1-yl)-3-(piperidin-1-yl)propan-1-one] |
| 5230 | 33 | COc1ccc(-c2[nH]c3ccc(C4CCN(C(=O)CCCn5ccnc5)CC4)cc3c2CC(F)(F)F)cc1OC [Example 331, 1-(4-(2-(3,4-dimethoxyphenyl)-3-(2,2,2-trifluoroethyl)-1H-indol-5-yl)piperidin-1-yl)-4-(1H-imidazol-1-yl)butan-1-one] |
| ≥ 50000 | 1860 | COc1ccc(-c2[nH]c3ccc(C4CCN(C(=O)Cc5c[nH]c6ccccc56)CC4)cc3c2CC(F)(F)F)cc1OC [Example 332, 1-(4-(2-(3,4-dimethoxyphenyl)-3-(2,2,2-trifluoroethyl)-1H-indol-5-yl)piperidin-1-yl)-2-(1H-indol-3-yl)ethan-1-one] |
| ≥ 50000 | 94 | COc1ccc(-c2[nH]c3ccc(C4CCN(C(=O)CCC(N)=O)CC4)cc3c2CC(F)(F)F)cc1OC [Example 333, 4-(4-(2-(3,4-dimethoxyphenyl)-3-(2,2,2-trifluoroethyl)-1H-indol-5-yl)piperidin-1-yl)-4-oxobutanamide] |
| 7770 | 130 | COc1ccc(-c2[nH]c3ccc(C4CCN(C(=O)Cc5c[nH]cn5)CC4)cc3c2CC(F)(F)F)cc1OC [Example 334, 1-(4-(2-(3,4-dimethoxyphenyl)-3-(2,2,2-trifluoroethyl)-1H-indol-5-yl)piperidin-1-yl)-2-(1H-imidazol-4-yl)ethan-1-one] |
| 15300 | 331 | COc1ccc(-c2[nH]c3ccc(C4CCN(C(=O)Cc5cccnc5)CC4)cc3c2CC(F)(F)F)cc1OC [Example 335, 1-(4-(2-(3,4-dimethoxyphenyl)-3-(2,2,2-trifluoroethyl)-1H-indol-5-yl)piperidin-1-yl)-2-(pyridin-3-yl)ethan-1-one] |
| 27800 | 359 | COc1ccc(-c2[nH]c3ccc(C4CCN(C(=O)[C@@H]5CCCN5C(C)=O)CC4)cc3c2CC(F)(F)F)cc1OC [Example 336, (S)-1-(2-(4-(2-(3,4-dimethoxyphenyl)-3-(2,2,2-trifluoroethyl)-1H-indol-5-yl)piperidine-1-carbonyl)pyrrolidin-1-yl)ethan-1-one] |
| ≥ 50000 | 3570 | COc1ccc(-c2[nH]c3ccc(C4CCN(C(=O)CCn5ccc6ccccc65)CC4)cc3c2CC(F)(F)F)cc1OC [Example 337, 1-(4-(2-(3,4-dimethoxyphenyl)-3-(2,2,2-trifluoroethyl)-1H-indol-5-yl)piperidin-1-yl)-3-(1H-indol-1-yl)propan-1-one] |
| ≥ 50000 | 1490 | COc1ccc(-c2[nH]c3ccc(C4CCN(C(=O)Cc5ccc(N(C)C)cc5)CC4)cc3c2CC(F)(F)F)cc1OC [Example 338, 1-(4-(2-(3,4-dimethoxyphenyl)-3-(2,2,2-trifluoroethyl)-1H-indol-5-yl)piperidin-1-yl)-2-(4-(dimethylamino)phenyl)ethan-1-one] |
| ≥ 50000 | 331 | COc1ccc(-c2[nH]c3ccc(C4CCN(C(=O)CC(F)(F)F)CC4)cc3c2CC(F)(F)F)cc1OC [Example 339, 1-(4-(2-(3,4-dimethoxyphenyl)-3-(2,2,2-trifluoroethyl)-1H-indol-5-yl)piperidin-1-yl)-3,3,3-trifluoropropan-1-one] |
